This is an account of results in patent US20230118467A1, “COSMETIC OR PHARMACEUTICAL USE OF AVENANTHRAMIDE L” (priority 2020, published 2023).

In data set [1] the test system is Primary human dermal fibroblasts. Put plainly: Cellular antioxidant activity (DCF-DA assay). Particulars: Homo sapiens, Fibroblast, 24 h incubation, prooxidant challenge 1 mM 1 h, read-out: Inhibition of oxidation. It is filed as cell-based. As to the method: The DCF-DA assay is a fluorometric microplate assay for the detection of oxidative stress by detecting oxidation of 2′,7′-dichlorofluorescein-diacetate (DCF-DA) into the highly fluorescent compound 2′,7′-dichlorofluorescein (DCF) due to the presence of reactive oxygen species (ROS). The DCF-DA assay allows the cellular antioxidant activity of a substance to be determined.
Primary human dermal fibroblasts were seeded in a 96-well microtiter plate at a concentration of 0.5×10^4 cells/well. Cultivation took place at 37° C. and 5% CO2 in DMEM, enriched with 10% foetal calf serum. Confluence was supposed to be around 70% at the time, the incubation with the test substances began. The test substances were applied to the cells at a concentration of 500 μM. After 24 h of incubation, 100 μL H2DCF-DA-solution (10 μM) incl. DAPI (1:1000) was added to all samples (excluded the background-control) and incubated for one hour to deesterify the H2DCF-DA by cellular esterases. The resulting H2DCF was thereby trapped inside the cell. After the incubation, the cells were washed and the prooxidant challenge was set (1 mM, 1 h). The resulting fluorescence was read at λex 504 nm; λem 524 nm. An increased level of ROS (reactive oxygen species) led to an increased amount of fluorescence.
The inhibition of the oxidation in the presence of test substances was calculated according to the following equation: […]
The abbreviations have the following meanings: • RFU test substance: Relative fluorescence units of the wells with test substance and with cells • RFU control: Relative fluorescence units of the wells without test substance, but with cells • RFU without cells: Relative fluorescence units of the wells without test substance and without cells (blank)

A short description of data set [2]: Temperature stability at 40° C. of avenanthramide mixture in solution. It is filed as physicochemical. The note with it: for Content after 2 weeks at 40° C. / Content after 4 weeks at 40° C. / Content before treatment: Avn in mixture DragoCalm (glycerin/water); for Content before treatment: HPLC; for Degradation in %: Avn in mixture DragoCalm. The text has this:
with p=sample 1 and v=sample 2

Data set [3] can be described thus: Radical-scavenging activity (ABTS assay). It is filed as biochemical. Particulars: absorption at 734 nm. The source says: The ABTS assay measures the relative ability of antioxidants to scavenge the ABTS radical generated in aqueous phase, as compared with a Trolox (water-soluble vitamin E analogue) standard. The green-blue stable radical cationic chromophore 2,2′-azino-bis(3-ethylbenzothiazoline-6-sulphonate) (ABTS^•+) is generated by reaction with the ABTS salt using a strong oxidising agent (for example potassium permanganate or potassium persulphate) and has absorption maxima at 414, 645, 734 and 815 nm. The reduction of the blue-green ABTS radical by hydrogen-donating antioxidants is measured by the suppression of its characteristic long wave absorption spectrum.
With the aid of the ABTS assay, the antioxidative capacity of Avn L and Avn A were evaluated and compared.
2,2′-azino-bis-(3-ethylbenzothiazoline-6-sulphonic acid) (ABTS) was transformed into the blue-green radical cation ABTS^•+ using potassium persulphate. Through the addition of [6]-paradol and alpha-tocopherol, the radical cations were reduced and discoloration was observed, as determined photometrically by absorption at 734 nm. Inhibition of radical formation in the test substance is calculated by the following formula: […]
where • Atest substance is the absorption in the wells with the test substance including [6]-paradol and alpha-tocopherol • Acontrol is the absorption in the wells with no test substance.
Values for IC50 (the concentration at which radical formation is inhibited by 50%) were calculated from the inhibition of radical formation [%] in a series of dilutions of tested samples.

The test system of another data set is HSPB2 (=HSP27). Put plainly: Gene expression in neonatal human epidermal keratinocytes (real-time PCR): HSPB2. It is filed as cell-based. Particulars: 100 μM, 24 hours, nHEK, vs DMSO vehicle; RQ ≥2.0 relevant. As for the experimental part:
(§1) Neonatal human epidermal keratinocytes (nHEK) were cultivated in an EpiLife® medium (Gibco) including an HKGS kit (Gibco) with 5% C02 at 37° C. in accordance with the supplier's instructions.
(§2) The cells were treated for 24 hours, with the test compounds dissolved in DMSO and DMSO alone as the vehicle control. Genomic target expression levels in treated cells were measured using a quantitative Real-Time PCR comparison to vehicle control treatment.
(§3) RNA was isolated using Qiagen's RNeasy® Mini Kit. The total RNA concentrations were measured using Eppendorf's pCuvetteG 1.0 and BioPhotometer, by measuring the absorption at 260 nm. Purity control values such as E260/280 and E260/230 were calculated simultaneously. Reverse transcription was performed using the high-capacity RNA-to-cDNA kit of Applied Biosystems, in accordance with the supplier's instructions. Samples were treated in Biometra's PCR Thermocycler.
(§4) For fast real-time PCR, the cDNA was diluted with RNase-free water, and the TaqMan™ Fast Universal PCR Master Mix of Applied Biosystems was used.
(§5) Quantitative real-time PCR was performed using the StepOnePlus fast real-time PCR instrument by Applied Biosystems. Analysis was conducted using the StepOne software and 2^−ΔΔct method (normalised to endogenous control […] expression).
For upregulations, RQ values ≥2.0 are considered to be relevant.

The next data set has as its target T1, tachykinin NK1 receptor (Homo sapiens, UniProt P25103).
T1 construct: expressed in transfected cells; host or cells: CHO cells
Put plainly: NK1 receptor inhibition study, radioligand binding assay ([3H] Substance P). As for the experimental part: The inhibition activity of avenanthramide L versus dihydroavenanthramide D and the structurally related avenanthramides A and D was evaluated in a radioligand binding assay.
The method employed in this study was adapted from the scientific literature so as to maximise reliability and reproducibility. Reference compound L-703,606 was run as an integral part of each experiment, to ensure the validity of the results obtained. The assay was performed under the conditions described in the following respective method.
Source: Human recombinant CHO cells
Incubation time/temperature: 90 minutes at 4° C. Incubation buffer: 20 mM HEPES, pH 7.4, • 1 mM MnCl2 • 0.1% BSA
Ligand: 0.80 nM [3H] Substance P
Non-specific ligand: 10.0 μM L-703,606 oxalate salt (CAS 144425-84-3) Specific binding: 90% Significance criteria: ≥50% of max. stimulation or inhibition Bmax: 1.70 pmol/mg protein
In another experiment, the inhibitory activity of a combination of avenanthramide L and another avenanthramide was evaluated in comparison to both substances alone in the radioligand binding assay as described in Example 1 to investigate a potential synergism.

The next data set has as its system CD44. Put plainly: Gene expression in neonatal human epidermal keratinocytes (real-time PCR): CD44. Type of data set: cell-based. The note with it: 100 μM, 24 hours, nHEK; RQ ≥2.0 relevant. As to the method: as §1, §2, §3, §4, §5
(§6) For upregulations, RQ values ≥2.0 are considered to be relevant. […]

Data set [4] can be described thus: Oxidative stability (Oxipress) of avenanthramides in solution. The note with it: for Content after treatment / Degradation in %: 5 bars of oxygen at 70° C. for 24 hours; for Content before treatment: HPLC; for ΔE (colour difference, CIELAB): before vs after 5 bars of oxygen at 70° C. for 24 hours.
Procedure: Stability under exposure to oxygen and temperature was evaluated for dissolved pure avenanthramides in aqueous ethanolic solution, both alone and as an avenanthramide mixture.
Avenantharmide mixtures used were DragoCalm® (Symrise; INCI Name: Aqua, Glycerin, Avena Sativa Kernel Extract) or DragoCalm® SP (Symrise; INCI Name: Aqua, Glycerin, Pentylene Glycol, Avena Sativa Kernel Extract).
The liquids were either exposed to 5 bars of oxygen at 70° C. for 24 hours using the Oxipress device or stored for 2 and 4 weeks at 40° C. in a heating cabinet.
The content of Avns was determined by HPLC, and the colour was measured by colorimetry (Hach Lange Lico 690 instrument) before and after treatment.
Color can be determined using the CIELAB color model which is based on an opponent color system. CIELAB indicates the color by values on three axes: L*, a*, and b* with dimension L for lightness and a* and b* for the color-opponent dimensions red/green and yellow/blue, based on nonlinearly compressed coordinates. The L* axis extends from black (0) to white (100), the a* axis from green (−a) to red (+a) and the b* axis from blue (−b) to yellow (+b).
The difference of 2 colors ΔE can be calculated using the following equation:
ΔEp,v=√{square root over ((Lp*−Lv*)^2+(ap*−av*)^2+bp*−bv*)^2)}
A difference of ΔE of 0.5-1 can be visually observed by a trained evaluator by naked eye. A difference of 2-4 can be observed visually also by a non-trained evaluator.
The subject of a further data set is BLVRB. Put plainly: Gene expression in neonatal human epidermal keratinocytes (real-time PCR): BLVRB. It is filed as cell-based. The note with it: 100 μM, 24 hours, nHEK; RQ ≥2.0 relevant. As for the experimental part:
as §1, §2, §3, §4, §5, §6

Setting [5] is: Avn in mixture DragoCalm SP (glycerin/water).
The mark [6] stands for this setting: single Avn in aqueous ethanolic solution (0.01 wt %).

T1 sequence (P25103 whole entry): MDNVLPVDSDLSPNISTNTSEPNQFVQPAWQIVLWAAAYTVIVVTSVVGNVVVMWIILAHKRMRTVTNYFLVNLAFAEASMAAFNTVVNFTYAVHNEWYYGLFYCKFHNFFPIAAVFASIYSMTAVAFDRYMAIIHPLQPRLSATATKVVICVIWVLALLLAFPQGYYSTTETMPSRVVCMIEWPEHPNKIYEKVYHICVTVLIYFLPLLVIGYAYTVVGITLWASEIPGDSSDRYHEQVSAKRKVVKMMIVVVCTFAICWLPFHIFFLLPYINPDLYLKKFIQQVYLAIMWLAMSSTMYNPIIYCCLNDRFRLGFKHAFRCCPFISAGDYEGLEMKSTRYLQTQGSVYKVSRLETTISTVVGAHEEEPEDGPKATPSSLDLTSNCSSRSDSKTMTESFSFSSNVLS

Take `O=C(C=Cc1ccc(O)cc1)Nc1ccc(O)cc1C(=O)O` [Avn A, N-(4′-hydroxycinnamoyl)-5-hydroxyanthranilic acid]: in data set [1], the inhibition at 500 µM came to 14 ± 6%. Moreover, in data set [2], the “Content after 2 weeks at 40° C.” value was determined as 50 ppm, the “Content after 4 weeks at 40° C.” value was 50 ppm and the Content before treatment is 50 ppm. Further, the “Mean antioxidant activity (inhibition of radical formation)” value in data set [3] (5 μM) amounted to 40 ± 4%. Also, in data set [3] (10 μM), the “Mean antioxidant activity (inhibition of radical formation)” value was found to be 76 ± 4%. Besides, the “RQ value, HSPB2 (=HSP27)” value in the data set with HSPB2 (=HSP27) was found to be 1.9. Also, the inhibition at 0.1 ppm on tachykinin NK1 receptor (test concentration 0.1 ppm, read-out: Percent inhibition of specific binding to the tachykinin NK1 receptor) came to 3%. The inhibition at 1 ppm at tachykinin NK1 receptor (test concentration 1 ppm, read-out: Percent inhibition of specific binding to the tachykinin NK1 receptor) turned out to be 8%. Besides, the inhibition at 10 ppm at tachykinin NK1 receptor (test concentration 10 ppm, read-out: Percent inhibition of specific binding to the tachykinin NK1 receptor) is 14%. Further, the inhibition at 100 ppm at tachykinin NK1 receptor (test concentration 100 ppm, read-out: Percent inhibition of specific binding to the tachykinin NK1 receptor) was found to be 21%. Also, the inhibition at 125 ppm at tachykinin NK1 receptor (test concentration 125 ppm (Example 7), read-out: Percent inhibition of specific binding to the tachykinin NK1 receptor) is 9%. Moreover, the “RQ value, CD44” value with CD44 was “no effect”. Also, in data set [4] (setting [5]), the Content after treatment was found to be 34 ppm, the Degradation in % turned out to be 3% and the Content before treatment is 35 ppm. Moreover, the Degradation in % entry in data set [4] (Avn in mixture DragoCalm SP (glycerin/water), listed as Avenanthramide A) is given as “stable”. Moreover, in data set [4] (setting [6]), the Content after treatment is given as 104 ppm; the Degradation in % is listed as 0%; the Content before treatment is recorded as 104 ppm; the “ΔE (colour difference, CIELAB)” value is on record as 0.2. In addition, the “RQ value, BLVRB” value in the data set on BLVRB is “no effect”.

For the compound `O=C(C=Cc1ccc(O)c(O)c1)Nc1ccc(O)cc1C(=O)O` [Avn C, N-(3′-4′-dihydroxycinnamoyl)-5-hydroxyanthranilic acid], the “Content after 2 weeks at 40° C.” value in data set [2] was determined as 16 ppm. Besides, in data set [2], the “Content after 4 weeks at 40° C.” value is given as 10 ppm. The Content before treatment is reported as 20 ppm in data set [2], 10 ppm in data set [4] (setting [5]) and 105 ppm in data set [4] (setting [6]). Further, the Degradation in % was 20% in data set [2] (after 2 weeks at 40° C.); 50% in data set [2] (after 4 weeks at 40° C.); 100% in data set [4] (setting [5]); “completely degraded” in data set [4] (Avn in mixture DragoCalm SP (glycerin/water), listed as Avenanthramide C); 15% in data set [4] (setting [6]). For the same compound, the “Percent inhibition of specific binding to the tachykinin NK1 receptor” value on tachykinin NK1 receptor (test concentration 0.1 ppm) worked out at 9%; on tachykinin NK1 receptor (test concentration 1 ppm) it was 15%; at tachykinin NK1 receptor (test concentration 10 ppm) it was 27%; at tachykinin NK1 receptor (test concentration 100 ppm), 94%. Also, the values for the Content after treatment in data set [4] (setting [5]) and in data set [4] (setting [6]) were <1 ppm and 89 ppm, respectively. Moreover, the “ΔE (colour difference, CIELAB)” value in data set [4] (setting [6]) stood at 2.3.

Consider `O=C(CCc1ccc(O)cc1)Nc1ccccc1C(=O)O` [Dihydroavenanthramide D, dihydroavenanthramide D], for which the “Percent inhibition of specific binding to the tachykinin NK1 receptor” value is 8% at tachykinin NK1 receptor (test concentration 0.1 ppm), 6% at tachykinin NK1 receptor (test concentration 1 ppm), 8% at tachykinin NK1 receptor (test concentration 10 ppm) and 19% at tachykinin NK1 receptor (test concentration 100 ppm).
